{"source": "paper PMC6273433", "about": "“Design, Synthesis and Cytotoxicity of Novel Dihydroartemisinin-Coumarin Hybrids via Click Chemistry” (Molecules, 2016)", "key": {"[1]": {"tested_on": "MDA-MB-231 (human breast carcinoma cell line, CA IX negative)", "experiment": "MTT cytotoxicity assay, MDA-MB-231 under anoxia or normoxia", "format": "cell-based", "settings": "for IC50: Homo sapiens; for MDA-MB-231 Value = IC50(normoxia)/IC50(anoxia): MDA-MB-231, activity promotion under anoxia, >100 set as 100", "procedure": "(§1) We focused our attention on the cytotoxicity of the four series of newly-synthesized compounds (10a–e, 11a–e, 12a–e, and 13a–e) under normoxic or anoxic conditions.\n(§2) The data was calculated by the Logit method and presented as IC50 values in Table 1.\n(§3) All of the newly-synthesized compounds were screened for in vitro cytotoxicity by MTT assay. The exponentially-growing MRC-5, HCT-116, MDA-MB-231, and HT-29 cells were allowed to grow until 80% confluency, the culture medium was discarded, digested with trypsin, separated centrifugally, then fresh culture medium was added and blown gently into single-cell suspension. Then, the cell suspension was seeded into each well of 96-well microculture plates at a concentration of 1.5 × 10^3–3 × 10^3 cells/well.\n(§4) The cells were incubated with 50 μL of 2 mg/mL MTT solution for 4 h in a humidified incubator. The supernatant was discarded, and the media were then replaced with 200 μL of dimethyl sulfoxide to dissolve the purple colored formazan crystals formed in the wells, and their absorbances were measured at 492 nm with a microplate reader (Synergy-HT, BioTek Instruments, Winooski, VT, USA); 200 μL DMSO was set as the blank control.\n(§5) The anoxia condition was achieved by placing cells in a sealed hypoxia incubator chamber (Catalog Number 27310, Stemcell Technologies, Inc., Vancouver, BC, Canada) filled with 5% CO2 and 95% N2."}, "[2]": {"tested_on": "HCT-116 (human colorectal cancer cell line)", "experiment": "MTT cytotoxicity assay, HCT-116 under anoxia or normoxia", "format": "cell-based", "settings": "for HCT-116 Value = IC50(normoxia)/IC50(anoxia): HCT-116, activity promotion under anoxia, >100 set as 100; for IC50: Homo sapiens", "procedure": "as §1, §2, §3, §4, §5"}, "[3]": {"tested_on": "HT-29 (human colon carcinoma cell line, overexpresses high amounts of CA IX)", "experiment": "MTT cytotoxicity assay, HT-29 under anoxia or normoxia", "format": "cell-based", "settings": "for HT-29 Value = IC50(normoxia)/IC50(anoxia): HT-29, activity promotion under anoxia; for IC50: Homo sapiens", "procedure": "as §1, §2, §3, §4, §5"}, "[4]": {"tested_on": "MRC-5 (human fetal lung fibroblast cells, normal lung cell)", "experiment": "MTT cytotoxicity assay, MRC-5 normal cells", "format": "cell-based", "settings": "MRC5, MRC-5, normoxia, 96 h MTT", "procedure": "as §1, §2, §3, §4"}, "[5]": {"experiment": "MTT cytotoxicity assay, summary statements over all cell lines", "format": "cell-based", "settings": "human, MRC-5, HCT-116, MDA-MB-231 and HT-29 cells; 96 h MTT assay, four cell lines, normoxic or anoxic", "procedure": "as §1, §2, §3, §4, §5"}, "[6]": {"settings": "MDA-MB-231, anoxia 24 h then normoxia 72 h, MTT, read-out: IC50 MDA-MB-231 Anoxia"}, "[7]": {"settings": "MDA-MB-231, normoxia, 96 h MTT, read-out: IC50 MDA-MB-231 Normoxia"}, "[8]": {"settings": "HCT-116, anoxia 24 h then normoxia 72 h, MTT, read-out: IC50 HCT-116 Anoxia"}, "[9]": {"settings": "HCT-116, normoxia, 96 h MTT, read-out: IC50 HCT-116 Normoxia"}, "[10]": {"settings": "HT-29, anoxia 24 h then normoxia 72 h, MTT, read-out: IC50 HT-29 Anoxia"}, "[11]": {"settings": "HT-29, normoxia, 96 h MTT, read-out: IC50 HT-29 Normoxia"}}, "note": "Like-named read-outs stand apart in the source and are kept apart here.", "data": [{"smiles": "C[C@H]1[C@@H](OCCCn2cc(COc3ccc4c(C(F)(F)F)cc(=O)oc4c3)nn2)O[C@@H]2O[C@@]3(C)CC[C@H]4[C@H](C)CC[C@@H]1[C@@]24OO3", "note": "[13b, 7-(1-(3-(10β-Dihydroartemisininoxy)propyl)-1H-1,2,3-triazol-4-yl)methoxy-4-trifluoromethyl-2H-chromen-2-one]", "values": [{"measurement": "IC50", "setting": "[1]; [6]", "value": 26.6, "unit": "µM"}, {"measurement": "IC50", "setting": "[1]; [7]", "value": "> 100", "unit": "µM"}, {"measurement": "MDA-MB-231 Value = IC50(normoxia)/IC50(anoxia)", "setting": "[1]", "value": 3.76}, {"measurement": "HCT-116 Value = IC50(normoxia)/IC50(anoxia)", "setting": "[2]", "value": 7.43}, {"measurement": "IC50", "setting": "[2]; [8]", "value": 2.75, "unit": "µM"}, {"measurement": "IC50", "setting": "[2]; [9]", "value": 20.4, "unit": "µM"}, {"measurement": "melting point", "value": "69 to 71", "unit": "°C"}, {"measurement": "HT-29 Value = IC50(normoxia)/IC50(anoxia)", "setting": "[3]", "value": 3.74}, {"measurement": "IC50", "setting": "[3]; [10]", "value": 5.31, "unit": "µM"}, {"measurement": "IC50", "setting": "[3]; [11]", "value": 19.8, "unit": "µM"}, {"measurement": "IC50", "setting": "[4]", "value": 21.4, "unit": "µM"}]}, {"smiles": "Cc1c(C)c2ccc(OCc3cn(CCCO[C@H]4O[C@@H]5O[C@@]6(C)CC[C@H]7[C@H](C)CC[C@@H]([C@H]4C)[C@@]57OO6)nn3)cc2oc1=O", "note": "[13c, 7-(1-(3-(10β-Dihydroartemisininoxy)propyl)-1H-1,2,3-triazol-4-yl)methoxy-3,4-dimethyl-2H-chromen-2-one]", "values": [{"measurement": "IC50", "setting": "[1]; [6]", "value": 4.17, "unit": "µM"}, {"measurement": "IC50", "setting": "[1]; [7]", "value": 59.6, "unit": "µM"}, {"measurement": "MDA-MB-231 Value = IC50(normoxia)/IC50(anoxia)", "setting": "[1]", "value": 14.29}, {"measurement": "HCT-116 Value = IC50(normoxia)/IC50(anoxia)", "setting": "[2]", "value": 8.95}, {"measurement": "IC50", "setting": "[2]; [8]", "value": 2.13, "unit": "µM"}, {"measurement": "IC50", "setting": "[2]; [9]", "value": 19.1, "unit": "µM"}, {"measurement": "melting point", "value": "68 to 70", "unit": "°C"}, {"measurement": "HT-29 Value = IC50(normoxia)/IC50(anoxia)", "setting": "[3]", "value": 4.23}, {"measurement": "IC50", "setting": "[3]; [10]", "value": 2.8, "unit": "µM"}, {"measurement": "IC50", "setting": "[3]; [11]", "value": 11.9, "unit": "µM"}, {"measurement": "IC50", "setting": "[4]", "value": 27.8, "unit": "µM"}]}, {"smiles": "Cc1c(Cl)c(=O)oc2cc(OCc3cn(CCCO[C@H]4O[C@@H]5O[C@@]6(C)CC[C@H]7[C@H](C)CC[C@@H]([C@H]4C)[C@@]57OO6)nn3)ccc12", "note": "[13d, 3-Chloro-7-(1-(3-(10β-Dihydroartemisininoxy)propyl)-1H-1,2,3-triazol-4-yl)methoxy-4-methyl-2H-chromen-2-one]", "values": [{"measurement": "IC50", "setting": "[1]; [6]", "value": 3.62, "unit": "µM"}, {"measurement": "IC50", "setting": "[1]; [7]", "value": 72.5, "unit": "µM"}, {"measurement": "MDA-MB-231 Value = IC50(normoxia)/IC50(anoxia)", "setting": "[1]", "value": 20.03}, {"measurement": "HCT-116 Value = IC50(normoxia)/IC50(anoxia)", "setting": "[2]", "value": 41.38}, {"measurement": "IC50", "setting": "[2]; [8]", "value": 0.43, "unit": "µM"}, {"measurement": "IC50", "setting": "[2]; [9]", "value": 18, "unit": "µM"}, {"measurement": "melting point", "value": "71 to 73", "unit": "°C"}, {"measurement": "HT-29 Value = IC50(normoxia)/IC50(anoxia)", "setting": "[3]", "value": 1.87}, {"measurement": "IC50", "setting": "[3]; [10]", "value": 4.68, "unit": "µM"}, {"measurement": "IC50", "setting": "[3]; [11]", "value": 8.76, "unit": "µM"}, {"measurement": "IC50", "setting": "[4]", "value": 31.5, "unit": "µM"}]}, {"smiles": "CCOC(=O)c1cc2ccc(OCc3cn(CCCO[C@H]4O[C@@H]5O[C@@]6(C)CC[C@H]7[C@H](C)CC[C@@H]([C@H]4C)[C@@]57OO6)nn3)cc2oc1=O", "note": "[13e, Ethyl 2-oxo-7-(1-(3-(10β-dihydroartemisininoxy)propyl)-1H-1,2,3-triazol-4-yl)methoxy-2H-chromene-3-carboxylate]", "values": [{"measurement": "IC50", "setting": "[1]; [6]", "value": 25.9, "unit": "µM"}, {"measurement": "IC50", "setting": "[1]; [7]", "value": 53.7, "unit": "µM"}, {"measurement": "MDA-MB-231 Value = IC50(normoxia)/IC50(anoxia)", "setting": "[1]", "value": 2.07}, {"measurement": "HCT-116 Value = IC50(normoxia)/IC50(anoxia)", "setting": "[2]", "value": 3.65}, {"measurement": "IC50", "setting": "[2]; [8]", "value": 17.6, "unit": "µM"}, {"measurement": "IC50", "setting": "[2]; [9]", "value": 64.3, "unit": "µM"}, {"measurement": "melting point", "value": "79 to 81", "unit": "°C"}, {"measurement": "HT-29 Value = IC50(normoxia)/IC50(anoxia)", "setting": "[3]", "value": 2.22}, {"measurement": "IC50", "setting": "[3]; [10]", "value": 7.09, "unit": "µM"}, {"measurement": "IC50", "setting": "[3]; [11]", "value": 15.7, "unit": "µM"}, {"measurement": "IC50", "setting": "[4]", "value": 27.2, "unit": "µM"}]}, {"smiles": "CC(=O)Nc1nnc(S(N)(=O)=O)s1", "note": "[AAZ, acetazolamide]", "values": [{"measurement": "IC50 at 96 h", "setting": "[5]", "value": "> 100", "unit": "µM"}]}]}
